Results as given in patent US20260199282A1, “METHODS AND COMPOSITIONS FOR IMPROVING DRIVING PERFORMANCE” (priority 2022, published 2026).
Values joined by “and” are separate entries in the source; they are usually repeats but may differ in a detail not shown here. Equal entries are not always repeated.

Assays:
[1] = test system: subjects with EDS due to OSA; test: Standardized on-road highway driving test, OSA study; format: in vivo, human
Experimental: This was a randomized, double-blind, placebo-controlled, crossover, on-road driving study in subjects with EDS due to OSA. A total of 40 adult subjects were planned for enrollment, and 34 subjects were randomized. Subjects received either solriamfetol (150 mg QD for 3 days, followed by 300 mg QD for 4 days) or matching placebo for 7 days, and then crossed over to receive the other treatment regimen for 7 days (FIG. 4). […] The PVT was administered predose and prior to each driving test. Actigraphy and a sleep diary were used to assess daily sleep patterns. The Toronto Hospital Alertness Test (THAT) was administered at baseline and at the end of each treatment period. A Follow-up Visit was performed approximately 7 days after the final dose of study drug. Subjects were recruited at clinical sites. Eligibility was determined through screening procedures (including a Maintenance of Wakefulness Test [MWT]) at the clinical sites after the washout of prohibited medications, and a practice driving test at the driving test site. A total of 40 adult subjects were planned for enrollment; 34 subjects were randomized and analyzed for safety and efficacy.
Assessments to determine driving performance included: standard deviation of lateral position (SDLP; Verster and Roth 2011; Raemakers 2017), standard deviation of speed (SDS), and number of driving lapses (also known as lane drift, defined as deviations>100 cm from the mean lateral position and from the absolute lateral position for 8 seconds; Vinckenbosch 2020). Driving performance was assessed using a standardized on-road driving test on Day 7 (Visit 4) and on Day 14 (Visit 5). A practice driving test was performed during the screening period to familiarize the subject with the vehicle and test scenario, assess if the subject could adequately operate the manual transmission vehicle, and determine if any safety concerns existed that excluded the subject from participating in the study.
During each drive, subjects operated a specially instrumented vehicle for approximately 1 hour over a 100 km (61 mile) primary highway circuit. During each driving test, each subject was accompanied by a licensed driving instructor who had access to dual controls (i.e., brakes, clutch, and accelerator). The subject or instructor could stop the test if either considered it unsafe to continue. The subject was instructed to drive with a steady lateral position between the delineated boundaries of the slower (right) traffic lane, while maintaining a constant speed of
95 km/h (58 mph). Subjects could deviate from these instructions only to pass a slower vehicle, to respond to a slower speed in traffic ahead of him/her and to leave and re-enter the highway at the turnaround point. During the drive, the vehicle's speed and lateral distance to the left lane line were continuously recorded and captured on an onboard computer disk file. Subjects were transported to and from the driving circuit on each test day.
The primary analysis was based on the mITT population. The primary outcome measure of mean change in SDLP was analyzed using a repeated mixed effect analysis of variance (ANOVA) model. The model included treatment (solriamfetol and placebo), driving performance test (2 hours postdose and 6 hours postdose), treatment period, treatment sequence, and treatment by driving performance test interaction as fixed effects and subject as a random effect. The 2-sided 95% confidence intervals of solriamfetol-placebo changes for SDLP based on the repeated mixed effect ANOVA model was constructed for each driving performance test.
Individual changes (solriamfetol minus placebo) in driving performance were measured by SDLP at 2 hours and 6 hours postdose. The Maximum McNemar symmetry analyses (Laska et al. 2012) were used to detect an asymmetry in the distribution of the change in driving performance at 2 hours and 6 hours post-dose. […]

[2] = test system: subjects with EDS due to OSA; parameters: species or system human; conditions: in vivo
[3] = test system: participants with OSA; test: Actual task effectiveness from PVT inverse reaction time, OSA; format: in vivo, human; conditions: OSA n=31
Experimental: Actual task effectiveness scores were calculated based on each participant's inverse reaction time (IRT [1/RT]) as described below. Sleep intervals derived from participants' actigraphy data—or from sleep diaries, if available, where actigraphy data were missing—were used to calculate modeled healthy control task effectiveness scores using the SAFTE. Participants evidenced good sleep hygiene, with minimal missing data. Task effectiveness was not modeled for participants missing data from the night before PVT testing. A SAFTE model effectiveness score of 100 indicates typical best performance during the day, based on a normal healthy population. SAFTE-FAST effectiveness predictions have been validated against IRT on the PVT [22].
Actual effectiveness scores were calculated as a percentage of a theoretical “best performance” from participants' average IRT per PVT trial (for all PVT test sessions, actual effectiveness=IRT/3.96×100). Average speed (IRT) on a PVT under optimal conditions—healthy sleepers taking the test at 11:00 in the morning, following an 8-hour sleep opportunity—is approximately 3.96 [40], and is assumed to represent an actual effectiveness score of 100 (a healthy participant's typical best performance). Repeated-measures analysis of variance (ANOVA) was used to estimate the effect of treatment on actual effectiveness over time.

[4] = test system: participants with narcolepsy; parameters: species or system human; conditions: in vivo
[5] = 2 hours postdose, mITT, primary analysis, listed as JZP-110
[6] = 2 hours postdose, sequence JZP-110/Placebo, mITT
[7] = 2 hours postdose, sequence Placebo/JZP-110, mITT
[8] = 6 hours postdose, sequence JZP-110/Placebo, mITT
[9] = 6 hours postdose, sequence Placebo/JZP-110, mITT

NC(=O)OC[C@H](N)Cc1ccccc1 [Solriamfetol, (R)-2-amino-3-phenylpropyl carbamate]
Maximum McNemar test, distribution of change in driving performance ([1]; 2 hours and 6 hours post-dose, mITT): did not show asymmetry
driving lapses, LS mean difference solriamfetol vs placebo ([1]; 2 hours postdose): −1.128 lapses
standard deviation of speed (SDS), LS mean difference ([1]; 2 hours postdose): 0.068 km/h
SDLP, mean (SD), observed ([1]; 2 hours postdose, day 7, 300 mg/day, mITT): 18.83 (3.690) cm
SDLP, mean (SD) difference (JZP-110 − Placebo) ([1]; 2 hours postdose, mITT): −1.11 (2.520) cm
SDLP, median difference (JZP-110 − Placebo) ([1]; 2 hours postdose, mITT): −0.78 cm
SDLP, median, observed ([1]; 2 hours postdose, mITT): 18.39 cm
SDLP, LS mean (SE) ([1]; 2 hours postdose, mITT, primary analysis): 18.83 cm
SDLP, LS mean (SE) [1, 5]: 18.83 (0.627) cm
SDLP, LS mean difference (JZP-110 − Placebo) [1, 5]: −1.084 cm
SDLP, mean (SD) [1, 6]: 18.58 (3.831) cm
SDLP, mean difference JZP-110 vs placebo [1, 6]: −0.26 cm
SDLP, median [1, 6]: 17.98 cm
SDLP, median difference JZP-110 vs placebo [1, 6]: −0.18 cm
SDLP, mean difference JZP-110 vs placebo [1, 7]: −1.91 cm
SDLP, median [1, 7]: 20.00 cm
SDLP, median difference JZP-110 vs placebo [1, 7]: −2.46 cm
SDLP, mean (SD) ([1]; 2 hours postdose, sequence Placebo/JZP-110, mITT, listed as JZP-110): 19.08 (3.643) cm
SDLP, mean (SD) ([1]; 2 hours postdose, sequence Placebo/JZP-110, mITT, listed as solriamfetol): 19.08 cm
driving lapses, LS mean difference solriamfetol vs placebo ([1]; 6 hours postdose): 0.050 lapses
standard deviation of speed (SDS), LS mean difference ([1]; 6 hours postdose): −0.109 km/h
SDLP, LS mean difference, sensitivity analysis ([1]; 6 hours postdose, PP population): −1.037 cm
SDLP, LS mean (SE) ([1]; 6 hours postdose, mITT): 19.24 (0.631) cm
SDLP, LS mean difference (JZP-110 − Placebo) ([1]; 6 hours postdose, mITT): −0.804 cm
SDLP, mean (SD) [1, 8]: 19.23 (3.224) cm
SDLP, mean difference JZP-110 vs placebo [1, 8]: 0.20 cm
SDLP, median [1, 8]: 18.92 cm
SDLP, median difference JZP-110 vs placebo [1, 8]: 0.43 cm
SDLP, mean difference JZP-110 vs placebo [1, 9]: −1.91 cm
SDLP, median [1, 9]: 19.24 cm
SDLP, median difference JZP-110 vs placebo [1, 9]: −1.33 cm
SDLP, mean (SD) ([1]; 6 hours postdose, sequence Placebo/JZP-110, mITT, listed as JZP-110): 19.23 (3.593) cm
SDLP, mean (SD) ([1]; 6 hours postdose, sequence Placebo/JZP-110, mITT, listed as solriamfetol): 19.23 cm
SDLP, difference in median values between the 2 treatments (solriamfetol-placebo) ([1]; placebo as initial treatment, both time points (2 and 6 hours postdose)): −1.91 cm
subjects who failed to complete the driving test ([1]; solriamfetol condition): 3 subjects
single McNemar test: proportion improved drivers versus impaired ([1]; threshold of 1.0 cm, 2 h post dose): 29.4%
PVT errors, LS mean (SE) [2]: 1.24 (0.58) n/trial and 1.84 (0.58) n/trial
PVT inverse reaction time, LS mean (SE) [2]: 3.53 (0.04) 1/ms and 3.64 (0.04) 1/ms and 3.71 (0.04) 1/ms
PVT lapses, LS mean (SE) [2]: 3.82 (0.90) n/trial and 3.02 (0.90) n/trial and 3.98 (0.90) n/trial
Actual task effectiveness, LS mean (SE) ([3]; 2 hours post-dose): 91.88 (1.12)
Actual task effectiveness, LS mean difference ([3]; 2 hours post-dose): −2.35
Actual task effectiveness, LS mean (SE) ([3]; 6 hours post-dose): 93.72 (1.12)
Actual task effectiveness, LS mean difference ([3]; 6 hours post-dose): −1.35
Actual task effectiveness, LS mean (SE) ([3]; pre-dose): 89.19 (1.12)
Actual task effectiveness, LS mean difference ([3]; pre-dose): −4.45
PVT errors, LS mean (SE) [4]: 1.11 (0.42) n/trial and 1.39 (0.42) n/trial and 1.34 (0.32) n/trial
PVT inverse reaction time, LS mean (SE) [4]: 3.41 (0.07) 1/ms and 3.80 (0.07) 1/ms and 3.72 (0.07) 1/ms
PVT lapses, LS mean (SE) [4]: 6.63 (1.61) n/trial and 3.35 (1.61) n/trial and 4.52 (1.61) n/trial
PVT mean reaction time, LS mean (SE) [4]: 582 (148.4) ms and 317 (148.4) ms and 319 (148.4) ms
